According to publication PMC10915964, “Identifying ligands for the PHD1 finger of KDM5A through high-throughput screening†” (RSC Chemical Biology, 2023):

Biological target: T1, GST-PHD1 (PHD1 finger of KDM5A) (Homo sapiens, UniProt P29375)
T1 construct: GST-PHD1(S287-E344); made in house; host or cells: E. coli BL21 (DE3), pET41a
T1 sequence (P29375 287-344): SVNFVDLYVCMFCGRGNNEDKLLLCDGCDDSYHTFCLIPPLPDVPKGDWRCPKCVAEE
Assay: Competitive-binding fluorescence polarization (FP) assay, displacement of 5-FAM H3K4me0 10-mer from GST-PHD1
Details: for inhibition at 1000 µM: read-out: %I at 1 mM
From the text: Fluorescence polarization (FP) has been widely used as a biophysical method to detect and quantify disruptions in protein–protein and protein–peptide interactions.[33,34] It served as the primary assay in the high-throughput screening (HTS) campaign to identify ligands for the PHD1 finger (Fig. 1b). The FP assay includes a GST-labeled […] construct and its H3K4me0 10-mer peptide substrate (Fig. 1c and d).[21,22] […]
Fig. 2 Dose-dependent inhibition of GST-PHD1 − H3 tail interaction by screen hits obtained from HTS of the NCI collection. […] DMSO is used as the negative (−) control (0% inhibition).
Fluorescence polarization high-throughput screening
To test the activity of purified GST-PHD1(S287-E344), direct-binding and competitive-binding fluorescence polarization (FP) were done, as previously described.3,4 For screening, GST-PHD1(S287-E344) was diluted in buffer (50 mM HEPES, pH 7.5, 50 mM KCl, 0.01% Tween-20, 1 mM TCEP) with 20 nM 5-carboxyfluorescein-labeled H3 10-mer peptide and with or without 0.1% bovine gamma globulin (BGG). This was treated as the assay buffer (with 0.1% BGG) and also as the negative control. For the positive control, 120 μM unlabeled H3K4 10-mer peptide was added to the assay buffer. The assay buffer was dispensed using the EL406 Biotek liquid dispenser onto black, round-bottom low volumes 384-microwell plates (Corning 4514) to a final volume of 10 μL per well. DMSO (10 nL or 50 nL) or screening compounds at 10 nL (ChemBridge Premium Diversity collection at 10 μM final) or 50 nL (ML fragments and NCI libraries at 50 μM final) was added to plates containing the assay buffer using the BioMek liquid handler/dispenser. The final DMSO in the samples was either 0.1% or 0.5%. Fluorescence polarization measurements were performed directly and after 45 minutes of incubation at room temperature using a Perkin Elmer Envision and XCite 2105 multimode microplate reader equipped with a stacker. Excitation light was delivered with a xenon flash lamp at 480/30 nm (BW) and emission was collected after passing through an emission filter (535/25 nm). For fluorescence polarization experiments, two 535/40 nm filters (S, P) and dual dichroic D505/D535 nm mirrors were used.
For FP-based assay optimization, the assay signal dynamic range was evaluated using the negative and positive control buffers with varying amounts of GST-PHD1 (0.5, 1, 1.5, or 2 μM) in the presence or absence of 0.1% BGG. For each condition, buffer was dispensed into 3 columns of a 384-well plate (48 wells each) using the BioMek liquid dispenser and the FP signal was recorded. The Z′ value reports on the assay robustness by reflecting both the dynamic range and the data variation associated with assay measurements.5 The Z′ value is given by the following equation: […]
where σ represents the standard deviation, PC represents the positive control, NC represents the negative control, and μ represents the mean value of the FP signal.
Screen results were analyzed using the UCSF SMDC web application called HiTS […]
(http://smdc.ucsf.edu/hits/). […]
equal to 3 standard deviations of the mean percent inhibition values, where the negative control is set to 0% inhibition and the positive control is set to 100% inhibition. Cheminformatics analysis on the screen hits was done using DataWarrior, an open-source program for data visualization and analysis with chemical intelligence.6 The Tanimoto coefficient was used to gauge the similarity and diversity of screen hits and cluster any compounds with greater than 75% similarity.
Screen hits were repurchased when available. Structurally similar derivatives were purchased when exact compounds were not available for purchase. Compound purity was confirmed by LCMS. All compounds were dissolved in DMSO-d6 to a final concentration of 40 mM unless otherwise specified. All putative screen hits were confirmed in dose-response using the competitive binding fluorescence polarization […]
assay. […]

[1] = 1 mM compound, quadruplicate (n = 1 for R1 = OBn; n = 2 for R1 = Me)

inhibition at 1000 µM [1] | Structure (SMILES) | further results
38% | CC(=O)c1c(C)oc2ccc(NS(=O)(=O)c3ccc(C(=O)O)cc3)cc12 [Compound B1, 4-(N-(3-acetyl-2-methylbenzofuran-5-yl)sulfamoyl)benzoic acid] | %I at 1 mM [1]: 38%
12% | CC(=O)c1c(C)oc2ccc(NS(=O)(=O)c3ccc(C(N)=O)cc3)cc12 [Compound B3, 4-(N-(3-acetyl-2-methylbenzofuran-5-yl)sulfamoyl)benzamide] | –
9% | CC(=O)c1c(C)oc2ccc(NS(=O)(=O)c3cccc(C(N)=O)c3)cc12 [Compound B4, 3-(N-(3-acetyl-2-methylbenzofuran-5-yl)sulfamoyl)benzamide] | –
11% | CCOC(=O)c1ccc(S(=O)(=O)Nc2ccc3oc(C)c(C(C)=O)c3c2)cc1 [Compound B5, ethyl 4-(N-(3-acetyl-2-methylbenzofuran-5-yl)sulfamoyl)benzoate] | –
4% | COC(=O)c1cccc(S(=O)(=O)Nc2ccc3oc(C)c(C(C)=O)c3c2)c1 [Compound B6, methyl 3-(N-(3-acetyl-2-methylbenzofuran-5-yl)sulfamoyl)benzoate] | –
13% | CC(=O)c1c(C)oc2ccc(NS(=O)(=O)c3cccc(Cl)c3)cc12 [Compound B7, N-(3-acetyl-2-methylbenzofuran-5-yl)-3-chlorobenzenesulfonamide] | –

The remaining lines, values behind:

Structure (SMILES) | inhibition at 1000 µM [1] | further results
CC(=O)c1c(C)oc2ccc(N(C(C)=O)S(=O)(=O)c3ccc(C(=O)O)cc3)cc12 [7 917 645] | 30% | –
Cc1oc2ccc(NS(=O)(=O)c3ccccc3)cc2c1C(=O)OCc1ccccc1 [Compound 8018-7366] | 6% | potency relative to parent hit (FP concentration-response, compared with 516 969 or 990 099): drastically reduced potency
C[C@H](N)C(=O)N[C@@H](CCCNC(=N)N)C(=O)N[C@H](C(=O)N[C@@H](CCCCN)C(=O)N[C@@H](CCC(N)=O)C(=O)N[C@H](C(=O)N[C@@H](C)C(=O)N[C@@H](CCCNC(=N)N)C(=O)N[C@@H](CCCCN)C(=O)N[C@@H](CO)C(=O)O)[C@@H](C)O)[C@@H](C)O [unlabeled H3 peptide, reference compound] | – | Ki (displacement of 5-FAM H3 10-mer (10 nM) from GST-PHD1 (2 μM)): 950 ± 140 nM
